Reference: ChEMBL document CHEMBL3407332, “An efficient synthesis of new caffeine-based chalcones, pyrazolines and pyrazolo[3,4-b][1,4]diazepines as potential antimalarial, antitrypanosomal and antileishmanial agents” (Eur J Med Chem, 2015)
Values after ≈ are worked out from the molar mass of the structure shown.

Key:
Plasmodium falciparum [1] = experiment: Antimalarial activity against asynchronic culture of Plasmodium falciparum NF54 assessed as parasite growth inhibition at 20 ug/mL after 48 hrs by ethidium bromide staining-based spectrofluorometric analysis relative to control; assay type: functional; settings: NF54, 48 h, read-out: GI
[2] = Cytotoxicity against human U937 cells assessed as cell viability after 72 hrs by MTT assay; assay type: cell-based, U-937; settings: read-out: LC50
Leishmania panamensis [3] = experiment: Antileishmanial activity against amastigote stage of Leishmania panamensis MHOM/CO/87/UA140-EpiR-GFP infected in human U937 cells assessed as parasite growth inhibition at 20 ug/mL after 72 hrs by flow cytometric analysis relative to control; assay type: functional; settings: MHOM/CO/87/UA140, U-937, 72 h, read-out: GI
Trypanosoma cruzi [4] = experiment: Antitrypanosomal activity against amastigote stage of Trypanosoma cruzi Tulahuen infected in human U937 cells assessed as parasite growth inhibition at 20 ug/mL after 72 hrs by beta-galactosidase reporter gene assay relative to control; assay type: functional; settings: U-937, 72 h, read-out: GI
Leishmania panamensis [5] = experiment: Antileishmanial activity against amastigote stage of Leishmania panamensis MHOM/CO/87/UA140-EpiR-GFP infected in human U937 cells assessed as parasite growth inhibition after 72 hrs by flow cytometric analysis; assay type: functional, organism-based; settings: MHOM/CO/87/UA140, U-937, 72 h
[6] = Hemolytic activity in human RBC after 48 hrs by spectrophotometric analysis; assay type: ADME, cell-based, Erythrocyte; settings: human red blood cells (RBC), read-out: LC50
Plasmodium falciparum [7] = experiment: Antimalarial activity against asynchronic culture of Plasmodium falciparum NF54 assessed as parasite growth inhibition after 48 hrs by ethidium bromide staining-based spectrofluorometric analysis; assay type: functional, organism-based; settings: NF54, 48 h
Leishmania panamensis [8] = experiment: Antileishmanial activity against amastigote stage of Leishmania panamensis MHOM/CO/87/UA140-EpiR-GFP infected in human U937 cells assessed as parasite growth inhibition at 5 ug/mL after 72 hrs by flow cytometric analysis relative to control; assay type: functional; settings: MHOM/CO/87/UA140, U-937, 72 h, read-out: GI
Trypanosoma cruzi [9] = experiment: Antitrypanosomal activity against amastigote stage of Trypanosoma cruzi Tulahuen infected in human U937 cells assessed as parasite growth inhibition at 1 ug/mL after 72 hrs by beta-galactosidase reporter gene assay relative to control; assay type: functional; settings: U-937, 72 h, read-out: GI
Trypanosoma cruzi [10] = experiment: Antitrypanosomal activity against amastigote stage of Trypanosoma cruzi Tulahuen infected in human U937 cells assessed as parasite growth inhibition after 72 hrs by beta-galactosidase reporter gene assay; assay type: functional, organism-based; settings: U-937, 72 h

| SMILES | inhibition of growth at 20 µg/mL (Plasmodium falciparum [1]) | CC50 at 72 h [2] | inhibition of growth at 20 µg/mL (Leishmania panamensis [3]) | inhibition of growth at 20 µg/mL (Trypanosoma cruzi [4]) | EC50 (Leishmania panamensis [5]) | HC50 at 48 h [6] | IC50 (Plasmodium falciparum [7]) | inhibition of growth at 5 µg/mL (Leishmania panamensis [8]) | inhibition of growth at 1 µg/mL (Trypanosoma cruzi [9]) | EC50 (Trypanosoma cruzi [10]) |
| --- | --- | --- | --- | --- | --- | --- | --- | --- | --- | --- |
| COc1cc(/C=C/C(=O)c2ccccc2)ccc1Oc1nc2c(c(=O)n(C)c(=O)n2C)n1C | 27.5% | 131 mg/L (≈ 293 µM) | 40.4% | 0% |  |  |  |  |  |  |
| COc1cc(/C=C/C(=O)c2ccc(Cl)cc2)ccc1Oc1nc2c(c(=O)n(C)c(=O)n2C)n1C | 18.4% | 102 mg/L (≈ 212 µM) | 88.3% | 29.5% | 12.9 mg/L (≈ 26.8 µM) |  |  |  |  |  |
| COc1cc(/C=C/C(=O)c2ccc(Br)cc2)ccc1Oc1nc2c(c(=O)n(C)c(=O)n2C)n1C | 34.3% | 96.5 mg/L (≈ 184 µM) | 50.8% | 0% |  |  |  |  |  |  |
| COc1cc(/C=C/C(=O)c2ccc(C)cc2)ccc1Oc1nc2c(c(=O)n(C)c(=O)n2C)n1C | 54.3% | 27.5 mg/L (≈ 59.7 µM) |  |  | 2.6 mg/L (≈ 5.65 µM) | > 200 µg/mL | 21.4 mg/L (≈ 46.5 µM) | 21.8% | 0% |  |
| COc1ccc(C(=O)/C=C/c2ccc(Oc3nc4c(c(=O)n(C)c(=O)n4C)n3C)c(OC)c2)cc1 | 0% | > 200 mg/L | 82.6% | 27.5% | 14.2 mg/L (≈ 29.8 µM) |  |  |  |  |  |
| COc1cc(/C=C/C(=O)c2cc(OC)c(OC)c(OC)c2)ccc1Oc1nc2c(c(=O)n(C)c(=O)n2C)n1C | 6.4% | 3.2 mg/L (≈ 5.96 µM) |  |  | 2.6 mg/L (≈ 4.85 µM) |  |  | 48.8% | 9.7% | 5.9 mg/L (≈ 11 µM) |
| COc1cc(C2CC(c3ccccc3)=NN2)ccc1Oc1nc2c(c(=O)n(C)c(=O)n2C)n1C (stereo unspecified) | 85.2% | 19.8 mg/L (≈ 43 µM) |  |  |  | > 200 µg/mL | 13.7 mg/L (≈ 29.8 µM) | 0% | 0% |  |
| COc1cc(C2CC(c3ccc(Cl)cc3)=NN2)ccc1Oc1nc2c(c(=O)n(C)c(=O)n2C)n1C (stereo unspecified) | 23.9% | 34.6 mg/L (≈ 69.9 µM) | 7.7% | 36.4% |  |  |  |  |  |  |
| COc1cc(C2CC(c3ccc(Br)cc3)=NN2)ccc1Oc1nc2c(c(=O)n(C)c(=O)n2C)n1C (stereo unspecified) | 56.8% | > 200 mg/L | 60% | 0% | 19.5 mg/L (≈ 36.2 µM) | > 200 µg/mL | 20.8 mg/L (≈ 38.6 µM) |  |  |  |
| COc1cc(C2CC(c3ccc(C)cc3)=NN2)ccc1Oc1nc2c(c(=O)n(C)c(=O)n2C)n1C (stereo unspecified) | 46.1% | 53.2 mg/L (≈ 112 µM) | 0% | 61.9% |  |  |  |  |  | 19.4 mg/L (≈ 40.9 µM) |
| COc1ccc(C2=NNC(c3ccc(Oc4nc5c(c(=O)n(C)c(=O)n5C)n4C)c(OC)c3)C2)cc1 (stereo unspecified) | 13.1% | > 200 mg/L | 0% | 25.9% |  |  |  |  |  |  |
| COc1cc(C2CC(c3cc(OC)c(OC)c(OC)c3)=NN2)ccc1Oc1nc2c(c(=O)n(C)c(=O)n2C)n1C (stereo unspecified) | 30.7% | > 200 mg/L | 73% | 0% | 15.8 mg/L (≈ 28.7 µM) |  |  |  |  |  |
| COc1cc(C2CC(c3ccccc3)=NN2C(C)=O)ccc1Oc1nc2c(c(=O)n(C)c(=O)n2C)n1C (stereo unspecified) | 62.5% | 14.8 mg/L (≈ 29.5 µM) |  |  |  | > 200 µg/mL | 18.4 mg/L (≈ 36.6 µM) | 35.2% | 0% |  |
| COc1cc(C2CC(c3ccc(Cl)cc3)=NN2C(C)=O)ccc1Oc1nc2c(c(=O)n(C)c(=O)n2C)n1C (stereo unspecified) | 22.1% | > 200 mg/L | 39.1% | 9.8% |  |  |  |  |  |  |
| COc1cc(C2CC(c3ccc(Br)cc3)=NN2C(C)=O)ccc1Oc1nc2c(c(=O)n(C)c(=O)n2C)n1C (stereo unspecified) | 44.1% | 110 mg/L (≈ 189 µM) | 82.8% | 24.3% | 14.3 mg/L (≈ 24.6 µM) |  |  |  |  |  |
| COc1cc(C2CC(c3ccc(C)cc3)=NN2C(C)=O)ccc1Oc1nc2c(c(=O)n(C)c(=O)n2C)n1C (stereo unspecified) | 35.6% | > 200 mg/L | 63.7% | 30.6% | 18.1 mg/L (≈ 35 µM) |  |  |  |  |  |
| COc1ccc(C2=NN(C(C)=O)C(c3ccc(Oc4nc5c(c(=O)n(C)c(=O)n5C)n4C)c(OC)c3)C2)cc1 (stereo unspecified) | 11.6% | > 200 mg/L | 76.2% | 0% | 14.6 mg/L (≈ 27.4 µM) |  |  |  |  |  |

| SMILES | inhibition of growth at 20 µg/mL (Plasmodium falciparum [1]) | CC50 at 72 h [2] | inhibition of growth at 20 µg/mL (Leishmania panamensis [3]) | inhibition of growth at 20 µg/mL (Trypanosoma cruzi [4]) | EC50 (Leishmania panamensis [5]) | HC50 at 48 h [6] | IC50 (Plasmodium falciparum [7]) | inhibition of growth at 5 µg/mL (Leishmania panamensis [8]) | inhibition of growth at 1 µg/mL (Trypanosoma cruzi [9]) | EC50 (Trypanosoma cruzi [10]) |
| --- | --- | --- | --- | --- | --- | --- | --- | --- | --- | --- |
| COc1cc(C2CC(c3cc(OC)c(OC)c(OC)c3)=NN2C(C)=O)ccc1Oc1nc2c(c(=O)n(C)c(=O)n2C)n1C (stereo unspecified) | 46.3% | > 200 mg/L | 87.6% | 15.8% | 12.6 mg/L (≈ 21.3 µM) |  |  |  |  |  |
| COc1cc(C2CC(c3ccccc3)=NN2C=O)ccc1Oc1nc2c(c(=O)n(C)c(=O)n2C)n1C (stereo unspecified) | 30.8% | > 200 mg/L | 53.1% | 0% |  |  |  |  |  |  |
| COc1cc(C2CC(c3ccc(Cl)cc3)=NN2C=O)ccc1Oc1nc2c(c(=O)n(C)c(=O)n2C)n1C (stereo unspecified) | 23.9% | > 200 mg/L | 0% | 21.1% |  |  |  |  |  |  |
| COc1cc(C2CC(c3ccc(Br)cc3)=NN2C=O)ccc1Oc1nc2c(c(=O)n(C)c(=O)n2C)n1C (stereo unspecified) | 46.9% | > 200 mg/L | 70.4% | 36.9% | 16.1 mg/L (≈ 28.4 µM) |  |  |  |  |  |
| COc1cc(C2CC(c3ccc(C)cc3)=NN2C=O)ccc1Oc1nc2c(c(=O)n(C)c(=O)n2C)n1C (stereo unspecified) | 37.1% | > 200 mg/L | 0% | 0% |  |  |  |  |  |  |
| COc1ccc(C2=NN(C=O)C(c3ccc(Oc4nc5c(c(=O)n(C)c(=O)n5C)n4C)c(OC)c3)C2)cc1 (stereo unspecified) | 41.7% | 38.7 mg/L (≈ 74.6 µM) | 48.1% | 27% |  |  |  |  |  |  |
| COc1cc(C2CC(c3cc(OC)c(OC)c(OC)c3)=NN2C=O)ccc1Oc1nc2c(c(=O)n(C)c(=O)n2C)n1C (stereo unspecified) | 29.5% | > 200 mg/L | 30.1% | 9.9% |  |  |  |  |  |  |
| COc1cc(C2CC(c3ccccc3)=Nc3c(C)nn(-c4ccccc4)c3N2)ccc1Oc1nc2c(c(=O)n(C)c(=O)n2C)n1C (stereo unspecified) | 85.9% | > 200 mg/L | 0% | 15.7% |  | > 200 µg/mL | 13.3 mg/L (≈ 21.6 µM) |  |  |  |
| COc1cc(C2CC(c3ccc(Cl)cc3)=Nc3c(C)nn(-c4ccccc4)c3N2)ccc1Oc1nc2c(c(=O)n(C)c(=O)n2C)n1C (stereo unspecified) | 80.3% | > 200 mg/L | 0% | 0% |  | > 200 µg/mL | 14.1 mg/L (≈ 21.7 µM) |  |  |  |
| COc1cc(C2CC(c3ccc(F)cc3)=Nc3c(C)nn(-c4ccccc4)c3N2)ccc1Oc1nc2c(c(=O)n(C)c(=O)n2C)n1C (stereo unspecified) | 91.7% | > 200 mg/L | 0% | 23.5% |  | > 200 µg/mL | 12.5 mg/L (≈ 19.7 µM) |  |  |  |
| COc1cc(C2CC(c3ccc(C)cc3)=Nc3c(C)nn(-c4ccccc4)c3N2)ccc1Oc1nc2c(c(=O)n(C)c(=O)n2C)n1C (stereo unspecified) | 93.5% | > 200 mg/L | 0% | 37.7% |  | > 200 µg/mL | 12.3 mg/L (≈ 19.5 µM) |  |  |  |
| COc1ccc(C2=Nc3c(C)nn(-c4ccccc4)c3NC(c3ccc(Oc4nc5c(c(=O)n(C)c(=O)n5C)n4C)c(OC)c3)C2)cc1 (stereo unspecified) | 84.4% | > 200 mg/L | 0% | 26.9% |  | > 200 µg/mL | 13.1 mg/L (≈ 20.3 µM) |  |  |  |
| COc1cc(C2CC(c3cc(OC)c(OC)c(OC)c3)=Nc3c(C)nn(-c4ccccc4)c3N2)ccc1Oc1nc2c(c(=O)n(C)c(=O)n2C)n1C (stereo unspecified) | 94.2% | > 200 mg/L | 0% | 56.6% |  | > 200 µg/mL | 11.3 mg/L (≈ 16 µM) |  |  | 20.3 mg/L (≈ 28.7 µM) |
| C[C@@H]1[C@H](O)[C@@H](C)/C=C/C=C/C=C/C=C/C=C/C=C/C=C/[C@H](O[C@@H]2O[C@H](C)[C@@H](O)[C@H](N)[C@@H]2O)C[C@@H]2O[C@](O)(C[C@@H](O)C[C@@H](O)[C@H](O)CC[C@@H](O)C[C@@H](O)CC(=O)O[C@H]1C)C[C@H](O)[C@H]2C(=O)O [AMPHOTERICIN B] |  | 36 mg/L (≈ 39 µM) | 100% |  | 0.05 mg/L (≈ 0.0541 µM) |  |  |  |  |  |
| O=C(Cn1ccnc1[N+](=O)[O-])NCc1ccccc1 [BENZNIDAZOLE] |  | 180 mg/L (≈ 692 µM) |  | 100% |  |  |  |  |  | 10.7 mg/L (≈ 41.1 µM) |
| CCN(CC)CCCC(C)Nc1ccnc2cc(Cl)ccc12 (stereo unspecified) [CHLOROQUINE] | 58.2% |  |  |  |  |  |  |  |  |  |
